Assay results taken from patent publication US20240294478A1, “ANTI-CANCER COMPOUNDS AND METHODS OF USE” (YALE UNIVERSITY, priority 2021, published 2024).

How the values were obtained:
[1] = test system: LN229 MGMT−/MMR+ and MGMT−/MMR− flank tumors; experiment: Flank tumor second study: regimens, schedules, routes; format: in vivo, mouse; settings: 5, 15, 25 mg/kg; MWF x 3 weeks or M-F x 1 week; PO or IP
From the text: (§1) FIGS. 9A-91: KL-50 is safe and efficacious on both MGMT−/MMR+ and MGMT−/MMR-flank tumors over a wide range of treatment regimens and conditions. […] (FIG. 9C) Mean body weight of mice during LN229 flank tumor experiments. (FIG. 9D) Kaplan-Meier analysis of LN229 MGMT−/MMR− xenograft flank tumor-bearing mice to determine survival rate based on death, removal from study if mouse body weight loss exceeded 20% of initial body weight, or if tumor volume exceeded 2000 mm^3. […] (FIGS. 9H-91) Xenograft LN229 MGMT−/MMR+ and LN229 MGMT−/MSH6—flank tumors with a larger average starting tumor size of −400 mm^3 and −350 mm^3 respectively, treated with 3 weekly cycles of P.O administration of 10% cyclodextrin (n=4) or KL-50 (n=4, 3 cycles of 25 mg/kg on Monday, Wednesday, and Friday). The study period was limited by control groups which had to be euthanized for exceeding the ethical maximum allowed tumor size, thus ending the study. In all panels, points, mean; error bars, SEM; *, P<0.05; **, P<0.01; ***, P<0.001; ****, P<0.0001; ns, not significant.
In a second study, mice were randomized and administered either KL-50 or vehicle (10% cyclodextrin) by oral gavage or intraperitoneal injection on either M-F x 1 or MWF×3 cycles at 5, 15, or 25 mgs/kg. Caliper measurements were obtained during the dosing period and at least two weeks following treatment. […]

[2] = test system: genomic DNA isolated from LN229 MGMT−/MMR+ cells; experiment: Genomic DNA denaturing gel electrophoresis; format: cell-based, human; settings: KL-50 200 μM
Procedure: Genomic DNA Denaturing Gel Electrophoresis. Cells were trypsinized, washed with 1×PBS, and stored at −80° C. prior to processing. Genomic DNA was extracted with the DNeasy Blood & Tissue Kit (Qiagen) per kit protocol. A 0.7% agarose gel was prepared in 100 mM NaCl-2 mM EDTA (pH 8) and soaked in 40 mM NaOH-1 mM EDTA running buffer for 2 h. Genomic DNA (400 ng/well) was then loaded in 1×BlueJuice loading buffer (Invitrogen) and subjected to electrophoresis at 2 V/cm for 30 min, followed by 3 V/cm for 2 h. The gel was neutralized in 150 mM NaCl-100 mM Tris (pH 7.4) for 30 min, twice, and then stained with 1×SYBR Gold in 150 mM NaCl-100 mM Tris (pH 7.4) for 90 min. Imaging was performed on a ChemiDoc XRS+ Molecular Imager (Bio-Rad).

[3] = test system: large MGMT−/MMR+ and MGMT−/MSH6− LN229 flank tumors; experiment: Flank tumor third study: large tumors; format: in vivo, mouse; settings: 25 mg/kg PO MWF x 3 weeks
From the text: as §1
The third study involved MGMT−/MMR+ and MGMT−/MSH6—(shMSH6) LN229 cells. Mice tumors were allowed to grow to a larger average starting volume of −350 mm^3 before they were randomized and administered either KL-50 (25 mg/kg MWF×3 weeks) or vehicle (10% cyclodextrin) by oral gavage. […]

[4] = test system: linearized pUC19 plasmid DNA; experiment: Melting temperature assay; format: biochemical; settings: 100 or 500 μM for 3 h
Procedure: Columns, mean; error bars, SD; n=2 independent analyses. For (A) and (C), points, mean; error bars, SD; n=3 technical replicates.
Melting Temperature Assay. Linearized pUC19 DNA (750 ng), prepared as described above, was incubated with the indicated concentration of either MMS or KL-50 adjusted in a final volume of 18 μL in 100 mM Tris buffer (pH 7.4) for 3 h. Drug stock concentrations were made in DMSO such that each reaction contained a fixed 5% DMSO concentration. Afterwards, 1 μL each of 20×SYBR Green dye (Invitrogen) and 20×ROX reference dye (Invitrogen) was added and melting temperature analysis was run on a StepOnePlus RT PCR System (Applied Biosciences) to generate melting temperature curves.

[5] = test system: FANCD2 ubiquitination in LN229 MGMT+/−, MMR+/− cells; experiment: Western blot analysis of FANCD2 ubiquitination; format: cell-based, human
From the text: FIGS. 8A-8K. (FIG. 8A) Change in percent cells with 1 micronuclei from baseline (DMSO control) after treatment as in FIGS. 5A and 5C. Columns, mean; error bars, SD; n>15 technical replicates; **** p<0.0001; ns, not significant. (FIG. 8B) Short-term viability assay curves for KL-50 in PD20 cells, deficient in FANCD2 (FANCD2−/−) or complemented with FANCD2 (+FANCD2). (FIG. 8C) Short-term viability assay curves for KL-50 in PEO4 (BRCA2+) and PEO1 (BRCA2−/−) cells pre-treated with 0.01% DMSO control or 10 μM O^6BG (+O^6BG) for 1 h prior to KL-50 addition. (FIG. 8D) Short-term viability assay curves for KL-50 in DLD1 BRCA2+/− and BRCA2−/−cells pre-treated with 0.01% DMSO control or 10 μM O^6BG (+O^6BG) for 1 h prior to KL-50 addition. For FIGS. 8B-8D, points, mean; error bars, SD; n=3 technical replicates. […] (FIG. 8E) Validation of micronuclei identification using olaparib as positive control. Change in percent cells with 1 micronuclei from baseline (DMSO control) after treatment with olaparib (10 μM) for 48 h in LN229 MGMT+/−, MMR+/−cells. Columns, mean; error bars, SD; n>15 technical replicates; **** p<0.0001. […] The % FANCD2 ubiquitination (% FANCD2 Ub) is quantified as the background-corrected integrated band intensity of the upper band divided by the sum of the background-corrected integrated band intensities of the upper and lower bands. […]

SMILES | efficacy and toxicity across regimens [1] | crosslinked genomic DNA (ICL induction) [2] | growth of large (350-400 mm^3) tumors [3] | change in DNA melting temperature [4] | FANCD2 ubiquitination [5]
NC(=O)c1ncn2c(=O)n(CCF)nnc12 [KL-50] | effective and non-toxic | presence of crosslinked DNA | potently suppressed the growth | comparable changes in measured DNA melting temperature | observed specifically in MGMT-cells
Cn1nnc2c(C(N)=O)ncn2c1=O [TMZ, 4-methyl-5-oxo-2,3,4,6,8-pentazabicyclo[4.3.0]nona-2,7,9-triene-9-carboxamide, reference compound] |  | no evidence of ICL induction |  |  | only in MGMT−/MMR+cells
